Measured values reported in patent US6218393A, “Anthranilic acid derivatives as multi drug resistance modulators” (priority 1997, dated 2001).

How the values were obtained:
AR 1.0 cells [1] = assay: Potentiation index with doxorubicin titration; type: cell-based, mouse; details: for Potentiation Index at RMA concentration 100 nM: Table C2, RMA 100 nM; for Potentiation Index at RMA concentration 300 nM: Table C2, RMA 300 nM; for Potentiation Index at RMA concentration 10 nM: Table C2, RMA 10 nM; for Potentiation Index at RMA concentration 30 nM: Table C2, RMA 30 nM
Procedure, shortened: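 MDR-resistant mouse EMT6 subline AR 1.0 grown four days with a doxorubicin titration (0.263 nM-17.24 μM) plus a fixed compound concentration; proliferation by sulphorhodamine B. Potentiation index derived from doxorubicin IC50 alone versus with compound.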

AR 1.0 cells [2] = assay: Drug accumulation assay: daunorubicin accumulation in AR 1.0 cells; type: cell-based; details: Mus musculus, 100% = accumulation with verapamil 100 μM, 1 hr, 37° C.
Procedure, shortened: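 AR 1.0 is the MDR-resistant subline of EMT6 mouse mammary carcinoma, grown in RPMI 1640 with 10% foetal calf serum and 2 mM glutamine at 37 °C, 5% CO2. Cells were seeded 48 h before the daunorubicin accumulation assay.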

AR 1.0 cells [3] = assay: Potentiation of doxorubicin toxicity: proliferation assay (sulphorhodamine B); type: cell-based, mouse
Source text: (a) Selected compounds of formula (I) were examined for their ability to potentiate the toxicity of doxorubicin in AR 1.0 cells.

[4] = Mus musculus, 96 h, compound alone, four day proliferation, read-out: Compound Toxicity (IC50)
[5] = with fixed doxorubicin 0.34 μm, four days, 5760 min, read-out: Toxicity with Cytotoxic Agent (IC50)

IC50 (AR 1.0 cells [2])	SMILES	Potentiation Index at RMA concentration 100 nM (AR 1.0 cells [1])	Potentiation Index at RMA concentration 300 nM (AR 1.0 cells [1])	IC50 (AR 1.0 cells [3]; [4])	IC50 (AR 1.0 cells [3]; [5])	Potentiation Index at RMA concentration 10 nM (AR 1.0 cells [1])	Potentiation Index at RMA concentration 30 nM (AR 1.0 cells [1])
450 nM	COc1cc2c(cc1OC)CN(CCc1ccc(NC(=O)c3ccccc3NC(=O)c3ccccc3O)cc1)CC2 [compound 9535]	32	128	2600 nM	15 nM		
450 nM	COc1cc2c(cc1OC)CN(CCc1ccc(NC(=O)c3ccccc3NC(=O)c3ccc(Cl)c(Cl)c3)cc1)CC2 [compound 9536, 2-(3,4-Dichloro-benzoylamino)-N-{4-[2-(6,7-dimethoxy-3,4-dihydro-1H-isoquinolin-2-yl)-ethyl]-phenyl}-benzamide]	32	128	2650 nM	15 nM		
220 nM	COc1cc2c(cc1OC)CN(CCc1ccc(NC(=O)c3ccccc3NC(=O)c3ccc(C)c(C)c3)cc1)CC2 [compound 9538, 2-(3,4-Dimethyl-benzoylamino)-N-{4-[2-(6,7-dimethoxy-3,4-dihydro-1H-isoquinolin-2-yl)-ethyl]-phenyl}-benzamide]	43	128	2300 nM	14 nM		
220 nM	COc1cc2c(cc1OC)CN(CCc1ccc(NC(=O)c3ccccc3NC(=O)c3cc4ccccc4o3)cc1)CC2 [compound 9539, Benzofuran-2-carboxylic acid (2-{4-[2-(6,7-dimethoxy-3,4-dihydro-1H-isoquinolin-2-yl)-ethyl]-phenylcarbamoyl}-phenyl)-amide]	32	128	1700 nM	11 nM		
20 nM	COc1cc2c(cc1OC)CN(CCc1ccc(NC(=O)c3ccc([N+](=O)[O-])cc3NC(=O)c3cnc4ccccc4n3)cc1)CC2 [compound 9541, Quinoxaline-2-carboxylic acid (2-{4-(2-(6,7-dimethoxy-3,4-dihydro-1H-isoquinolin-2-yl)-ethyl]-phenylcarbamoyl}-5-nitro-phenyl)-amide]	160	160	860 nM	6 nM	75	150
130 nM	COc1cc2c(cc1OC)CN(CCc1ccc(NC(=O)c3ccc(NO)cc3NC(=O)c3cnc4ccccc4n3)cc1)CC2 [compound 9542, Quinoxaline-2-carboxylic acid (2-{4-[2-(6,7-dimethoxy-3,4-dihydro-1H-isoquinolin-2-yl)-ethyl]-phenylcarbamoyl}-5-hydroxyamino-phenyl)-amide]	128	160	1900 nM	14 nM		
70 nM	COc1cc2c(cc1OC)CN(CCc1ccc(NC(=O)c3cc(C)ccc3NC(=O)c3cnc4ccccc4n3)cc1)CC2 [compound 9543, Quinoxaline-2-carboxylic acid (2-{4-[2-(6,7-dimethoxy-3,4-dihydro-1H-isoquinolin-2-yl)-ethyl]-phenylcarbamoyl}-4-methyl-phenyl)-amide]	150	150	900 nM	8 nM	24	120
50 nM	COc1cc2c(cc1OC)CN(CCc1ccc(NC(=O)c3ccccc3NC(=O)c3cnc4ccccc4c3)cc1)CC2 [compound 9544, Quinoline-3-carboxylic acid (2-{4-[2-(6,7-dimethoxy-3,4-dihydro-1H-isoquinolin-2-yl)ethyl]-phenylcarbamoyl}-phenyl)-amide]	120	150	1900 nM	7.7 nM	15	67
990 nM	COc1cc2c(cc1OC)CN(CCc1ccc(NC(=O)c3cc(O)ccc3NC(=O)c3cnc4ccccc4n3)cc1)CC2 [compound 9554, Quinoxaline-2-carboxylic acid (2-{4-[2-(6,7-dimethoxy-3,4-dihydro-1H-isoquinolin-2-yl)-ethyl]-phenylcarbamoyl}-4-hydroxy-phenyl)-amide]	90		3000 nM	50 nM		
12 nM	COc1cc2c(cc1OC)CN(CCc1ccc(NC(=O)c3ccccc3NC(=O)c3ccc(C)nc3)cc1)CC2 [compound 9557, N-(2-{4-[2-(6,7-Dimethoxy-3,4-dihydro-1H isoquinolin-2-yl)-ethyl]-phenylcarbamoyl}phenyl)-6-methyl-nicotinamide]	100		9000 nM	20 nM	1.2	
55 nM	COc1cc2c(cc1OC)CN(CCc1ccc(NC(=O)c3ccc(C(F)(F)F)cc3NC(=O)c3cnc4ccccc4n3)cc1)CC2 [compound 9561, Quinoxaline-2-carboxylic acid (2-{4-[2-(6,7-dimethoxy-3,4-dihydro-1H-isoquinolin-2-yl)-ethyl]-phenylcarbamoyl}-5-trifiuoromethyl-phenyl)-amide]	100		13000 nM	10 nM	14	60
200 nM	COc1cc2c(cc1OC)CN(CCc1ccc(NC(=O)c3c(F)cccc3NC(=O)c3cnc4ccccc4n3)cc1)CC2 [compound 9564, Quinoxaline-2-carboxylic acid (2-{4-[2-(6,7-dimethoxy-3,4-dihydro-1H-isoquinolin-2-yl)-ethyl]-phenylcarbamoyl}-3-fluoro-phenyl)-amide]	129		400 nM	8 nM		
160 nM	COc1cc2c(cc1OC)CN(CCCc1ccc(NC(=O)c3ccccc3NC(=O)c3cnc4ccccc4n3)cc1)CC2 [compound 9567, Quinoxaline-2-carboxyXic acid (2-{4-[3-(6,7-dimethoxy-3,4-dihydro-1H-isoquinolin-2-yl)-propyl]-phenylcarbamoyl}-phenyl)-amide]	112		1700 nM	28 nM	1.7	8
17 nM	COc1cc2c(cc1OC)CN(CCc1ccc(NC(=O)c3cc(F)ccc3NC(=O)c3cnc4ccccc4n3)cc1)CC2 [compound 9568, Quinoxaline-2-carboxylic acid. (2-{4-[2-(6,7-dimethoxy-3,4-dihydro-1H-isoquinolin-2-yl)-ethyl]-phenylcarbamoyl}-4-fluoro-phenyl)-amide]	88		2800 nM	3.4 nM	23	60
22 nM	COc1cc2c(cc1OC)CN(CCc1ccc(NC(=O)c3ccc(F)cc3NC(=O)c3cnc4ccccc4c3)cc1)CC2 [compound 9571, Quinoline-3-carboxylic acid (2-{4-[2-(6,7-dimethoxy-3,4-dihydro-1H-isoquinolin-2-yl)-ethyl]-phenylcarbamoyl}-5-fluoro-phenyl)-amide]	100		2000 nM	0.8 nM	38	100
53 nM	COc1cc2c(cc1OC)CN(Cc1ccc(NC(=O)c3ccccc3NC(=O)c3cnc4ccccc4n3)cc1)CC2 [compound 9572, Quinoxaline-2-carboxylic acid {2-[4-(6,7-dimethoxy-3,4-dihydro-1H-isoquinolin-2-ylmethyl)-phenylcarbamoyl}-phenyl}-amide]	83		1700 nM	14 nM	2.7	25
9.5 nM	COc1cc2c(cc1OC)CN(CCc1ccc(NC(=O)c3cc(OC)c(OC)cc3NC(=O)c3cnc4ccccc4n3)cc1)CC2 [compound 9573, Quinoxaline-2-carboxylic acid (2-{4-[2-(6,7-dimethoxy-3,4-dihydro-1H-isoquinolin-2-yl)-ethyl]-phenylcarbamoyl}-4,5-dimethoxy-phenyl)-amide]	100		4000 nM		83	94
19 nM	COc1cc2c(cc1OC)CN(CCc1ccc(NC(=O)c3cc(F)ccc3NC(=O)c3cnc4ccccc4c3)cc1)CC2 [compound 9574, Quinoline-3-carboxylic acid (2-{4-[2-(6,7-dimethoxy-3,4-dihydro-1H-isoquinolin-2-yl)-ethyl]-phenylcarbamoyl}-4-fluoro-phenyl)-amide]	94		320 nM		16	60

SMILES	IC50 (AR 1.0 cells [2])	Potentiation Index at RMA concentration 100 nM (AR 1.0 cells [1])	Potentiation Index at RMA concentration 300 nM (AR 1.0 cells [1])	IC50 (AR 1.0 cells [3]; [4])	IC50 (AR 1.0 cells [3]; [5])	Potentiation Index at RMA concentration 10 nM (AR 1.0 cells [1])	Potentiation Index at RMA concentration 30 nM (AR 1.0 cells [1])
O=C(Nc1ccccc1C(=O)Nc1ccc(CCN2CCc3ccccc3C2)cc1)c1cnc2ccccc2c1 [compound 9577, Quinoline-3-carboxylic acid (2-{4-[2-(3,4-dihydro-1H-isoquinolin-2-yl)-ethyl]-phenylcarbamoyl}-phenyl)-amide]	320 nM	112		7700 nM		2.2	18
